Experimental data: paper PMC11172375, “Preclinical Evaluation of Biodistribution and Toxicity of [^211At]PSMA-5 in Mice and Primates for the Targeted Alpha Therapy against Prostate Cancer” (International Journal of Molecular Sciences, 2024)
Entries after “also recorded” stand apart in the source; their conditions may differ.

Legend:
[1] = Biodistribution in cynomolgus monkey (planar/SPECT imaging, 24 h autopsy); type: in vivo; conditions: 9 MBq/kg i.v.
Description: (§1) [^211At]PSMA-5 was administered intravenously to 25 mice, and its biodistribution was evaluated. For the toxicity study, three doses of [^211At]PSMA-5 (5, 12, and 35 MBq/kg, single dose) or saline were intravenously administered to 10 mice/group for the main evaluation point on day 1, and 5-mice/group for recovery evaluation on day 14, adhering to the ICH M3 (R2) guidelines. The dosage was determined based on our previous study using [^211At]NaAt. The monkeys were monitored for 24 h post-administration of [^211At]PSMA-5 (9 MBq/kg).
Monkeys were anesthetized with intramuscular administration of ketamine (10 mg/kg) and xylazine (0.5 mg/kg) with isoflurane inhalation anesthesia. Planar and Single Photon Emission Computed Tomography (SPECT) imaging was performed in monkeys using a γ-camera system (E-cam, Siemens, Erlangen, Germany) immediately after administration to 1 h and at 3 and 24 h post-administration of [^211At]PSMA-5 (9 MBq/kg), targeting the X-rays emitted from the daughter nuclide ^211Po (energy window: 79 keV ± 20%). […]
Urine and feces samples were collected at each time point. […] Organ weights and radiation doses were measured using a γ-counter (model: 2480Wizard2, PerkinElmer) and γ-camera system (E-cam) by appropriate cross-calibration.

[2] = Extended single-dose toxicity study in mice: general condition, body weight, organ weight; type: in vivo, ICR mice; conditions: for testes organ weight: day 14
Description: This study was conducted in compliance with the Animal Experiment Regulations and the Act on Welfare and Management of Animals of the Osaka University Graduate School of Medicine (approval numbers: 04-070 and 04-094). Normal male ICR mice (n = 85, 5–6 weeks old, body weight: 29.4 ± 2.3 g) and cynomolgus monkey (n = 2, body weight: 2.10 and 2.05 kg) were purchased from Japan SLC Inc. (Hamamatsu, Japan) and Hamri Co., Ltd. (Ibaraki, Japan), respectively. The animals were housed under a 12 h light/12 h dark cycle. General condition and body weight were monitored.
as §1
The brain, salivary gland, thyroid, heart, lungs, liver, kidney, adrenal gland, pancreas, spleen, thymus, stomach, small intestine, large intestine, bladder, prostate, and testes were collected on days 1 or 14 in mice and at 24 h in monkeys. Additionally, the pituitary gland, tongue, trachea, esophagus, mesenteric lymph nodes, epididymis, seminal vesicles, skin, mammary glands, spinal cord, bone, bone marrow (femur), eyeball, and optic nerve were collected from the mice. After fixation, paraffin sections were prepared and stained with hematoxylin and eosin (HE). All the specimens were evaluated by an expert in toxic pathology using an integrated fluorescence microscope (BZ-X810; Keyence Corporation. Osaka, Japan). In mice, the brain, salivary glands, heart, lungs, liver, gallbladder, spleen, kidneys, and testes were weighed according to ICH S4 guideline.

[3] = Hematological examination in monkeys; type: in vivo, cynomolgus monkeys; conditions: for %Lymph / Hb / Ht / Platelet / RBC / WBC: monkeys, 9 MBq/kg i.v.
Description: as §1
Monkeys were anesthetized with intramuscular administration of ketamine (10 mg/kg) and xylazine (0.5 mg/kg) with isoflurane inhalation anesthesia. Planar and Single Photon Emission Computed Tomography (SPECT) imaging was performed in monkeys using a γ-camera system (E-cam, Siemens, Erlangen, Germany) immediately after administration to 1 h and at 3 and 24 h post-administration of [^211At]PSMA-5 (9 MBq/kg), targeting the X-rays emitted from the daughter nuclide ^211Po (energy window: 79 keV ± 20%). Subsequent image analysis was performed by setting the regions of interest using Osirix MD software (Version 13, Pixmeo SARL, Bernex, Switzerland) and PMOD software (Version 3.903, PMOD Technologies, Fällanden, Switzerland). Blood samples were obtained pre-administration and at 1, 3, and 24 h post-administration, followed by euthanasia via bloodletting at 24 h.
A blood cell counter was used for the measurements (CB-1010; ARKRAY, Inc., Kyoto, Japan). Red blood cell count (RBC), hemoglobin concentration (Hb), hematocrit (Ht), white blood cell count (WBC), platelet count (platelet), lymphocytes (%Lymph), monocytes (%Mon), and granulocytes (%Gra) were calculated. Plasma was analyzed using a dry clinical chemistry analyzer (Spotchem D-00 QR D-02; ARKRAY, Inc., Kyoto, Japan). The levels of aspartate aminotransferase (AST), alanine aminotransferase (ALT), gamma-glutamyl transpeptidase (γ-GTP), lactate dehydrogenase (LDH), alkaline phosphatase (ALP), creatine kinase (CK), amylase (AMY), total bilirubin (TBIL), creatinine (CRE), urea nitrogen (BUN), glucose (GLU), total protein (TP), albumin (ALB), total cholesterol (TCHO), triglyceride (TG), and electrolytes (Na, K, and Cl) were measured.

O=C(O)CC[C@H](NC(=O)N[C@@H](CCCCNC(=O)[C@@H](Cc1ccc2ccccc2c1)NC(=O)c1ccc(CNC(=O)[C@@H](CCC(=O)O)NC(=O)[C@@H](CCC(=O)O)NC(=O)Cc2ccc([211At])cc2)cc1)C(=O)O)C(=O)O [[^211At]PSMA-5]
cumulative fecal excretion [1]: 11.27 %ID | cumulative urinary excretion [1]: 0.46 %ID | STD10 in human after body surface area conversion ([2]; converted from mice): > 2.8 MBq/kg | body weight compared to the control ([2]; mice, 12 MBq/kg, day 5): significant decrease in body weight | testes organ weight ([2]; mice, 12 MBq/kg): 0.18 ± 0.02 g | body weight compared to the control ([2]; mice, 35 MBq/kg, day 10): significant decrease in body weight | testes organ weight ([2]; mice, 35 MBq/kg): 0.17 ± 0.003 g | severe toxicity or death ([2]; mice, highest dose 35 MBq/kg, 14-day observation): No severe toxicity or death was observed; also recorded: no severe toxicity | STD10 (dose that causes severe toxicity in 10% of test animals) ([2]; mice, single i.v. dose): exceed 35 MBq/kg | leukopenia (mainly lymphopenia) ([3]; cynomolgus monkeys, 9 MBq/kg, 24 h after administration): mild but significant leukopenia | %Lymph ([3]; 1 h): 44.0 ± 16.0% | Hb ([3]; 1 h): 10.3 ± 1.4 g/dL | Ht ([3]; 1 h): 32.9 ± 4.8% | Platelet ([3]; 1 h): 263.7 ± 33.0 10^3 cell/µL | RBC ([3]; 1 h): 4.30 ± 0.30 10^6 cell/µL | WBC ([3]; 1 h): 10.1 ± 0.7 10^3 cell/µL | %Lymph ([3]; 3 h): 52.0 ± 4.5% | Hb ([3]; 3 h): 11.2 ± 0.8 g/dL | Ht ([3]; 3 h): 35.4 ± 2.5% | Platelet ([3]; 3 h): 306.8 ± 41.2 10^3 cell/µL | RBC ([3]; 3 h): 4.70 ± 0.00 10^6 cell/µL | WBC ([3]; 3 h): 6.7 ± 1.4 10^3 cell/µL | %Lymph ([3]; 24 h): 23.7 ± 1.1% | Hb ([3]; 24 h): 9.9 ± 0.5 g/dL | Ht ([3]; 24 h): 31.8 ± 1.5% | Platelet ([3]; 24 h): 269.7 ± 60.8 10^3 cell/µL | RBC ([3]; 24 h): 4.20 ± 0.10 10^6 cell/µL | WBC ([3]; 24 h): 5.3 ± 0.8 10^3 cell/µL
